The assay addresses Acetylcholinesterase (Homo sapiens, UniProt P22303). The assay is described as follows: Compound was tested for the in silico inhibition of acetylcholinesterase.

Data on 30 compounds can be found in ChEMBL document CHEMBL1136484, “3D-QSAR studies on natural acetylcholinesterase inhibitors of Sarcococca saligna by comparative molecular field analysis (CoMFA)” (Bioorg Med Chem Lett, 2003).

Acetylcholinesterase, sequence (P22303 whole entry): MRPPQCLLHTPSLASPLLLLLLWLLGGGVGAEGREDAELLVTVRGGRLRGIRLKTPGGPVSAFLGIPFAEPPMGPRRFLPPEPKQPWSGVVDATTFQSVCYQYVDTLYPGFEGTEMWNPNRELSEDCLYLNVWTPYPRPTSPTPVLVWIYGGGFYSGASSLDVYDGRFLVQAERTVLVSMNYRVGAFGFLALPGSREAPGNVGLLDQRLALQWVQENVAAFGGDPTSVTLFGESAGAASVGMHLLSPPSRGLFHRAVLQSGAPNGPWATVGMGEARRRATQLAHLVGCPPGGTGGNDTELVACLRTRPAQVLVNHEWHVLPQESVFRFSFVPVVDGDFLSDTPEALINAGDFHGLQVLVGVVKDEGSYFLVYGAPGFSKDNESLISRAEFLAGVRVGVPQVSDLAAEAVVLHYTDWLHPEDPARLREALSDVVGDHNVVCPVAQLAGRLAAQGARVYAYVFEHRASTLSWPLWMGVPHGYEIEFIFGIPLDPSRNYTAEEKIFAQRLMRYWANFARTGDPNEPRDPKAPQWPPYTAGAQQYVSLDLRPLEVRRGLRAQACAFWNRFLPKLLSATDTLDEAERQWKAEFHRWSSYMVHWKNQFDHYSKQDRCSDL

One may read the IC50 as the concentration that gives 50% inhibition. Low readings indicate higher potency, high ones lower potency. As for `CC(=O)N(C)[C@@H](C)[C@H]1CC[C@H]2[C@@H]3CC[C@H]4C[C@@H](N(C)C)CC[C@]4(C)[C@H]3CC[C@]12C`, the 50% inhibitory concentration (IC50) was 50.1 µM. This lies in the double-digit micromolar range. `C/C=C(\C)C(=O)NC1=CC[C@@]2(C)[C@@H](CC[C@H]3C4CC[C@H]([C@H](C)N(C)C)[C@@]4(C)CC[C@@H]32)C1=O` (stereo not given in full) had a half-maximal inhibitory concentration (IC50) of 13.8 µM. Compared with the last compound, the IC50 is about 3.6-fold lower. The compound `C/C=C(\C)C(=O)N[C@@H]1C=C2CC[C@H]3C4=CC[C@H]([C@H](C)N(C)C)[C@@]4(C)CC[C@@H]3[C@@]2(C)CC1` had an IC50 of 7.76 µM. Compound `C[C@H](NC=O)[C@H]1CC[C@H]2[C@@H]3CC[C@H]4C[C@@H](N(C)C)CC[C@]4(C)[C@H]3CC[C@]12C` showed an IC50 of 6.46 µM. The compound `CN[C@@H](C)C1=CC[C@H]2[C@@H]3CC=C4C[C@@H](OC)CC[C@]4(C)[C@H]3CC[C@]12C` showed a concentration for half-maximal inhibition (IC50) of 83.2 µM. Take `CO[C@@H]1CC2=CC[C@@H]3[C@H](CC[C@]4(C)C([C@H](C)N(C)C)=CC[C@@H]34)[C@@]2(C)C[C@@H]1O`: 251 µM corresponded to half-maximal inhibition (IC50).

Compound `CC(=O)N(C)[C@@H](C)[C@H]1CC[C@H]2[C@@H]3CC=C4C[C@@H](N(C)C)CC[C@]4(C)[C@H]3CC[C@]12C` gave an IC50 of 20 µM. Against the preceding compound, the IC50 is about 13-fold lower. `C/C=C(\C)C(=O)N[C@H]1CC[C@@]2(C)C(=CC[C@H]3C4=CC[C@H]([C@H](C)N(C)C)[C@@]4(C)CC[C@@H]32)C1=O` showed an IC50 of 5.75 µM.

Turning to `CN[C@H]1CC[C@@]2(C)[C@@H](CC[C@@H]3[C@@H]2CC[C@]2(C)C([C@H](C)N(C)C)=CC[C@@H]32)C1`, inhibition was half-maximal at 20.4 µM (IC50).

`C/C=C(\C)C(=O)N[C@@H]1C=C2CC[C@H]3[C@@H]4CC[C@H]([C@H](C)N(C)C)[C@@]4(C)CC[C@@H]3[C@@]2(C)C[C@@H]1O` showed an IC50 of 15.8 µM.

The compound `CC(=O)O[C@@H]1C2CC[C@H]3C4CC=C([C@H](C)N(C)C)[C@@]4(C)CC[C@@H]3[C@@]2(C)CC[C@@H]1NC(=O)C=C(C)C` (stereo not given in full) gave an IC50 of 5.25 µM. As to `CN[C@H]1CC[C@@]2(C)C(CC[C@H]3[C@@H]4CC[C@H]([C@H](C)N(C)C)[C@@]4(C)CC[C@@H]32)C1` (stereo not given in full), half-maximal inhibition (IC50) was put at 6.17 µM. `CO[C@H]1CC[C@@]2(C)C(=CC[C@@H]3[C@@H]2CC[C@]2(C)C([C@H](C)N(C)C=O)=CC[C@@H]32)C1` gave an IC50 of 49 µM. In turn, `C/C=C(\C)C(=O)N[C@H]1CC[C@@]2(C)C(=CC[C@H]3[C@@H]4CC[C@H]([C@H](C)N(C)C)[C@@]4(C)CC[C@@H]32)[C@H]1O` had an IC50 of 30.2 µM. This IC50 lies about 1.6-fold lower than the previous one. For `C[C@@H]([C@H]1CC[C@H]2[C@@H]3CC[C@H]4C(=O)C(NC(=O)c5ccccc5)=CC[C@]4(C)[C@H]3CC[C@]12C)N(C)C`, it took 5.25 µM to reach half-maximal inhibition (IC50). Regarding `C/C=C(\C)C(=O)N[C@@H]1[C@H](O)C2CC[C@H]3C4=CC[C@H]([C@H](C)N(C)C)[C@@]4(C)CC[C@@H]3[C@@]2(C)C[C@@H]1O` (stereo not given in full), the IC50 was 33.1 µM. Consider `C/C=C(\C)C(=O)N[C@H]1C(OC(C)=O)C[C@@]2(C)C(CC[C@H]3C4CC=C([C@H](C)N(C)C)[C@@]4(C)CC[C@@H]32)[C@H]1OC(C)=O` (stereo not given in full), for which the IC50 is 50.1 µM. This IC50 is about 1.5-fold higher than that of the compound before. In the case of `CO[C@H]1CC[C@@]2(C)C(=CC[C@H]3[C@@H]4CC[C@H]([C@H](C)N(C)C)[C@@]4(C)CC[C@@H]32)C1`, inhibition was half-maximal at 42.7 µM (IC50). The IC50 values of the last two compounds are within 1.5-fold of each other. Next, `C/C=C(\C)C(=O)N[C@@H]1[C@H](OC(C)=O)[C@@H]2CC[C@H]3C4=CC[C@H]([C@H](C)N(C)C)[C@@]4(C)CC[C@@H]3[C@@]2(C)C[C@@H]1O`: 61.7 µM; `C[C@@H]([C@H]1CC[C@H]2[C@@H]3CC[C@H]4C[C@@H](NC(=O)c5ccccc5)[C@@H](O)C[C@]4(C)[C@H]3CC[C@]12C)N(C)C`: 77.6 µM; `C/C=C(\C)C(=O)N[C@H]1CC[C@@]2(C)C(=CC[C@H]3[C@@H]4CC[C@H]([C@H](C)N(C)C)[C@@]4(C)CC[C@@H]32)C1=O`: 7.08 µM.

`C[C@@H]([C@H]1CC[C@H]2[C@@H]3CC=C4C[C@@H](N(C)C)CC[C@]4(C)[C@H]3CC[C@]12C)N(C)C` had an IC50 of 39.8 µM. The compound `C/C(=C\C(=O)N(C)[C@H]1CC[C@@]2(C)[C@@H](CC[C@@H]3[C@@H]2CC[C@]2(C)[C@@H]([C@H](C)N(C)C)CC[C@@H]32)C1)C(C)C` gave an IC50 of 6.46 µM. `CC(=O)O[C@H]1[C@@H](NC(=O)c2ccccc2)[C@@H](O)C[C@]2(C)[C@H]3CC[C@]4(C)[C@@H]([C@H](C)N(C)C)CC[C@H]4[C@@H]3CC[C@@H]12` gave a half-inhibitory concentration (IC50) of 229 µM.

For the compound `C/C=C(\C)C(=O)N[C@@H]1[C@H](OC(C)=O)[C@@H]2CC[C@@H]3[C@H](CC[C@]4(C)[C@@H]([C@H](C)N(C)C)CC[C@@H]34)[C@@]2(C)C[C@@H]1O`, the half-inhibitory concentration (IC50) was 182 µM. The same measure for `CC(=O)N[C@H]1CC[C@@]2(C)[C@@H](CC[C@@H]3[C@@H]2CC[C@]2(C)[C@@H]([C@H](C)N(C)C)CC[C@@H]32)C1`: 69.2 µM. In turn, `C/C(=C\C(=O)N(C)[C@H]1CC[C@@]2(C)[C@@H](CC[C@@H]3[C@@H]2CC[C@]2(C)C([C@H](C)N(C)C)=CC[C@@H]32)C1)C(C)C` showed a concentration for half-maximal inhibition (IC50) of 6.17 µM.

Take `CC(=O)N(C)[C@H]1CC[C@@]2(C)[C@@H](CC[C@@H]3[C@@H]2CC[C@]2(C)[C@@H]([C@H](C)N(C)C)CC[C@@H]32)C1`: 70.8 µM corresponded to half-maximal inhibition (IC50).

The compound `C[C@@H]([C@H]1CC[C@H]2[C@@H]3CC[C@H]4C[C@@H](NC(=O)c5ccccc5)CC[C@]4(C)[C@H]3CC[C@]12C)N(C)C` [EPIPACHYSAMINE D] showed an IC50 of 28.8 µM. Next, `C[C@@H]([C@H]1CC[C@H]2[C@@H]3CC[C@H]4C[C@@H](N(C)C(=O)/C=C/c5ccccc5)CC[C@]4(C)[C@H]3CC[C@]12C)N(C)C` [SALIGCINNAMIDE]: 19.5 µM.
